Results from US7049293B2, “Peptide and osteogenetic accelerator” (Kyocera Corporation, priority 1998, dated 2006).
Residues, ends and D or L forms follow the SMILES beside them.

Assays:
rat bone marrow cells = assay: Cytotoxicity test in vitro, rat bone marrow cells (colony count, Giemsa staining); assay type: cell-based, rats (Lewis); conditions: 30 μg/ml, seven days
Description: Femurs were aseptically taken out of six-week-old female rats (Lewis, purchased from Nippon SLC). Both ends of the femurs were cut off. Then bone marrow was extruded into centrifugal tubes by means of Eagle's MEM containing 10% of fetal bovine serum using an injection syringe with a 21 G injection needle. The bone marrow cells were sufficiently dispersed with a pipette and filtered through a 40 μm filter to remove agglutinations. The resulting bone marrow cells were centrifuged with Eagle's MEM containing 10% of fetal bovine serum three times (1200 rpm, 5 min.×3), and then the number of cells was counted. The bone marrow cells were diluted with Alpha MEM containing 10% of fetal bovine serum so that relatively large bone marrow cells were present in a concentration of 10^6/ml. The dilution was pipetted 10 ml in each culture flask having a culture area of 25 cm^2 and incubated at 37° C. in the presence of 5% CO2. […]
Twenty-four hours after the incubation was started, culture medium was removed and Alpha MEM containing 10% of fetal bovine serum and 30 μg/ml of the peptide described in Example 1 was added to the cells under culture. […] After seven days, the number of formed colonies of bone marrow cells was counted using Giemsa staining. […]

C3H10T1/2 cells = assay: Cytotoxicity test in vitro, C3H10T1/2 cells (protein concentration, BCA); assay type: cell-based; conditions: 100 μg/ml, six days
Procedure: C3H10T1/2 cells were dispersed in Eagle's MEM containing 10% fetal bovine serum, pipetted on a 96-well culture plate, 3750 cells per well, and incubated at 37° C. in the presence of 5% CO2. Into the wells, a PBS solution of the peptide described in Example 1 was added so that the resulting concentration became 100 μg/ml, followed by incubation under the same conditions for six days. Then the culture medium was removed and a cytolytic solution (0.1M Tris-HCl buffer containing 1% Triton X-100, pH 9) was added to dissolve cells. Then the concentration of protein was determined using BCA reagent (produced by Funakoshi Kabushiki Kaisha).

rats = assay: Acute toxicity test on rats; assay type: in vivo, rats (Lewis); conditions: 500 μg intraperitoneally three times in a week
Procedure: A PBS solution of 500 μg of the peptide described in Example 1 was intraperitoneally administered to six-week-old female rats (Lewis, purchased from Nippon SLC) three times in a week. […] Neither were the rats observed to have a poor coat of fur or any abnormal behavior during the test.

`CC[C@H](C)[C@H](NC(=O)[C@H](C)NC(=O)[C@H](CO)NC(=O)[C@H](CC(C)C)NC(=O)[C@H](CCC(=O)O)NC(=O)[C@@H](NC(=O)[C@@H]1CCCN1C(=O)[C@@H](NC(=O)[C@H](CS)NC(=O)[C@H](CS)NC(=O)[C@H](C)NC(=O)[C@H](CCCCN)NC(=O)[C@@H]1CCCN1C(=O)[C@@H](NC(=O)[C@H](CCCCN)NC(=O)[C@H](CO)NC(=O)[C@H](CC(N)=O)NC(=O)[C@@H](NC(=O)[C@H](CO)NC(=O)[C@@H](N)CC(N)=O)C(C)C)[C@@H](C)CC)C(C)C)[C@@H](C)O)C(=O)O` [Example 1] (H-NSVNSKIPKACCVPTELSAI-OH) was tested, and the “number of formed colonies of bone marrow cells” value (rat bone marrow cells; average per flask, PBS control 89) was 101, the “cytotoxicity (conclusion)” value (rat bone marrow cells; rat bone marrow cells) was “did not have cytotoxicity” and the “cytotoxicity (conclusion)” value (C3H10T1/2 cells; C3H10T1/2 cells) was “did not have cytotoxicity”. For the same compound, the concentration of protein (C3H10T1/2 cells; n=12, PBS control 0.07±0.03) was 120 ± 20 µg/mL, the increase in weight (rats; after a week, n=6, PBS control 23±5) was 25 ± 6 g and the “acute toxicity (conclusion)” value (rats; no poor coat of fur or abnormal behavior) was “no significant acute toxicity”.
